The text below walks through data of patent US7745636B2, “Hepatitis C virus inhibitors” (Bristol-Myers Squibb Company, priority 2006, dated 2010).

In this test the test system is HCV 1b-377-neo replicon cells. The test can be described thus: HCV Replicon assay, HCV 1b-377-neo replicon cells. The test is classed as cell-based, HCV 1b genotype. Conditions: Hepatitis C virus, Table 2, read-out: Range (EC50 against HCV 1b). Here is the method:
An HCV Replicon assay was utilized in the present disclosure, and was prepared, conducted and validated as described in commonly owned PCT/US2006/022197 and in O'Boyle et. al. Antimicrob Agents Chemother. 2005 April; 49(4):1346-53.
HCV 1b-377-neo replicon cells were used to test the currently described compound series as well as cells resistant to compound A due to a Y2065H mutation in NS5A (described in application PCT/US2006/022197). The compounds tested were determined to have more than 10-fold less inhibitory activity on cells resistant to compound A than wild-type cells indicating a related mechanism of action between the two compound series. Thus, the compounds of the present disclosure can be effective to inhibit the function of the HCV NS5A protein and are understood to be as effective in combinations as previously described in application PCT/US2006/022197 and commonly owned WO/O4014852. Further, the compounds of the present disclosure can be effective against the HCV 1b genotype. It should also be understood that the compounds of the present disclosure can inhibit multiple genotypes of HCV. […] In one embodiment compounds of the present disclosure are active against the 1a, 1b, 2a, 2b, 3a, 4a, and 5a genotypes.
Background: Replicon systems follow genome replication, usually without infectious particles.
Consider `COC(=O)N[C@@H](C(=O)N(C)[C@@H](C)c1ncc(-c2ccc(-c3ccc(-c4cnc([C@@H]5CCCN5C(=O)[C@@H](c5ccccc5)N(C)C)[nH]4)cc3)cc2)[nH]1)c1ccccc1` [Example 131.1-1, methyl((1R)-2-(((1S)-1-(5-(4′-(2-((2S)-1-((2R)-2-(dimethylamino)-2-phenylacetyl)-2-pyrrolidinyl)-1H-imidazol-5-yl)-4-biphenylyl)-1H-imidazol-2-yl)ethyl) (methyl)amino)-2-oxo-1-phenylethyl)carbamate], for which the EC50 (as a rule, the concentration that produces a half-maximal response) fell in the range of 0.001 to 0.999 nM.
The figure for `COC(=O)N[C@@H](C(=O)N(C)[C@@H](C)c1ncc(-c2ccc(-c3ccc(-c4cnc([C@@H]5CCCN5C(=O)[C@@H](c5ccccc5)N5CCCCC5)[nH]4)cc3)cc2)[nH]1)c1ccccc1` [Example 131.1-2, methyl((1R)-2-(methyl((1S)-1-(5-(4′-(2-((2S)-1-((2R)-2-phenyl-2-(1-piperidinyl)acetyl)-2-pyrrolidinyl)-1H-imidazol-5-yl)-4-biphenylyl)-1H-imidazol-2-yl)ethyl)amino)-2-oxo-1-phenylethyl)carbamate] is 0.001 to 0.999 nM; for `CN(C)[C@@H](C(=O)N1CCC[C@H]1c1ncc(-c2ccc(-c3ccc(-c4cnc([C@@H]5CCCN5C(=O)[C@@H](c5ccccc5)N(C)C)[nH]4)cn3)cc2)[nH]1)c1ccccc1` [Example 132, (1R)-2-((2S)-2-(5-(6-(4-(2-((2S)-1-((2R)-2-(dimethylamino)-2-phenylacetyl)-2-pyrrolidinyl)-1H-imidazol-5-yl)phenyl)-3-pyridinyl)-1H-imidazol-2-yl)-1-pyrrolidinyl)-N,N-dimethyl-2-oxo-1-phenylethanamine] it is 0.001 to 0.999 nM; for `O=C([C@H](O)c1ccccc1)N1CCC[C@H]1c1ncc(-c2ccc(-c3ccc(-c4cnc([C@@H]5CCCN5C(=O)[C@H](O)c5ccccc5)[nH]4)cn3)cc2)[nH]1` [Example 133, (1R)-2-((2S)-2-(5-(6-(4-(2-((2S)-1-((2R)-2-hydroxy-2-phenylacetyl)-2-pyrrolidinyl)-1H-imidazol-5-yl)phenyl)-3-pyridinyl)-1H-imidazol-2-yl)-1-pyrrolidinyl)-2-oxo-1-phenylethanol] it is 1 to 99 nM.
For `COC(=O)N[C@@H](C(=O)N1CCC[C@H]1c1ncc(-c2ccc(-c3ccc(-c4cnc([C@@H]5CCCN5C(=O)[C@H](NC(=O)OC)c5ccccc5)[nH]4)cn3)cc2)[nH]1)c1ccccc1` [Example 134, methyl ((1R)-2-((2S)-2-(5-(6-(4-(2-((2S)-1-((2R)-2-((methoxycarbonyl)amino)-2-phenylacetyl)-2-pyrrolidinyl)-1H-imidazol-5-yl)phenyl)-3-pyridinyl)-1H-imidazol-2-yl)-1-pyrrolidinyl)-2-oxo-1-phenylethyl)carbamate], the EC50 was 0.001 to 0.999 nM.
In the case of `CO[C@@H](C(=O)N1CCC[C@H]1c1ncc(-c2ccc(-c3ccc(-c4cnc([C@@H]5CCCN5C(=O)[C@H](OC)c5ccccc5)[nH]4)cn3)cc2)[nH]1)c1ccccc1` [Example 135, 5-(2-((2S)-1-((2R)-2-methoxy-2-phenylacetyl)-2-pyrrolidinyl)-1H-imidazol-5-yl)-2-(4-(2-((2S)-1-((2R)-2-methoxy-2-phenylacetyl)-2-pyrrolidinyl)-1H-imidazol-5-yl)phenyl)pyridine], the EC50 fell in the range of 0.001 to 0.999 nM.
For the molecule `Cc1cc(-c2cnc([C@@H]3CCCN3C(=O)[C@@H](c3ccccc3)N(C)C)[nH]2)ccc1-c1ccc(-c2cnc([C@@H]3CCCN3C(=O)[C@@H](c3ccccc3)N(C)C)[nH]2)cn1` [Example 136, (1R)-2-((2S)-2-(5-(6-(4-(2-((2S)-1-((2R)-2-(dimethylamino)-2-phenylacetyl)-2-pyrrolidinyl)-1H-imidazol-5-yl)-2-methylphenyl)-3-pyridinyl)-1H-imidazol-2-yl)-1-pyrrolidinyl)-N,N-dimethyl-2-oxo-1-phenylethanamine], the EC50 lay within 0.001 to 0.999 nM.
Regarding `COC(=O)N[C@@H](C(=O)N1CCC[C@H]1c1ncc(-c2ccc(-c3ccc(-c4cnc([C@@H]5CCCN5C(=O)[C@H](NC(=O)OC)c5ccccc5)[nH]4)cc3C)nc2)[nH]1)c1ccccc1` [Example 138, methyl((1R)-2-((2S)-2-(5-(6-(4-(2-((2S)-1-((2R)-2-((methoxycarbonyl)amino)-2-phenylacetyl)-2-pyrrolidinyl)-1H-imidazol-5-yl)-2-methylphenyl)-3-pyridinyl)-1H-imidazol-2-yl)-1-pyrrolidinyl)-2-oxo-1-phenylethyl)carbamate], the EC50 was in the range of 0.001 to 0.999 nM.
Regarding `CC(=O)N[C@@H](C(=O)N1CCC[C@H]1c1ncc(-c2ccc(-c3ccc(-c4cnc([C@@H]5CCCN5C(=O)[C@H](NC(C)=O)c5ccccc5)[nH]4)cn3)cc2)[nH]1)c1ccccc1` [Example 139, N-((1R)-2-((2S)-2-(5-(6-(4-(2-((2S)-1-((2R)-2-acetamido-2-phenylacetyl)-2-pyrrolidinyl)-1H-imidazol-5-yl)phenyl)-3-pyridinyl)-1H-imidazol-2-yl)-1-pyrrolidinyl)-2-oxo-1-phenylethyl)acetamide], the EC50 lay in the range of 0.001 to 0.999 nM.
Consider `COC(=O)N[C@@H](C(=O)N1CCC[C@H]1c1ncc(-c2ccc(-c3ccc(-c4cnc([C@@H]5CCCN5C(=O)[C@@H](c5ccccc5)N(C)C)[nH]4)cn3)cc2)[nH]1)c1ccccc1` [Example 140, methyl((1R)-2-((2S)-2-(5-(4-(5-(2-((2S)-1-((2R)-2-(dimethylamino)-2-phenylacetyl)-2-pyrrolidinyl)-1H-imidazol-5-yl)-2-pyridinyl)phenyl)-1H-imidazol-2-yl)-1-pyrrolidinyl)-2-oxo-1-phenylethyl)carbamate], for which the EC50 was 0.001 to 0.999 nM.
The result for `COC(=O)N[C@@H](C(=O)N1CCC[C@H]1c1ncc(-c2ccc(-c3ccc(-c4cnc([C@@H]5CCCN5C(=O)[C@H]5CCCO5)[nH]4)cn3)cc2)[nH]1)c1ccccc1` [Example 141, methyl ((1R)-2-oxo-1-phenyl-2-((2S)-2-(5-(4-(5-(2-((2S)-1-((2R)-tetrahydro-2-furanylcarbonyl)-2-pyrrolidinyl)-1H-imidazol-5-yl)-2-pyridinyl)phenyl)-1H-imidazol-2-yl)-1-pyrrolidinyl)ethyl)carbamate] reads 0.001 to 0.999 nM; that for `COC(=O)N[C@@H](C(=O)N1CCC[C@H]1c1ncc(-c2ccc(-c3ccc(-c4cnc([C@@H]5CCCN5C(=O)C5CCN(C)CC5)[nH]4)cn3)cc2)[nH]1)c1ccccc1` [Example 142, methyl ((1R)-2-((2S)-2-(5-(4-(5-(2-((2S)-1-((1-methyl-4-piperidinyl)carbonyl)-2-pyrrolidinyl)-1H-imidazol-5-yl)-2-pyridinyl)phenyl)-1H-imidazol-2-yl)-1-pyrrolidinyl)-2-oxo-1-phenylethyl)carbamate], 1 to 99 nM.
In the case of `COC(=O)N[C@@H](C(=O)N1CCC[C@H]1c1ncc(-c2ccc(-c3ccc(-c4cnc([C@@H]5CCCN5C(=O)Cc5cccnc5)[nH]4)cn3)cc2)[nH]1)c1ccccc1` [Example 143, methyl ((1R)-2-oxo-1-phenyl-2-((2S)-2-(5-(4-(5-(2-((2S)-1-(3-pyridinylacetyl)-2-pyrrolidinyl)-1H-imidazol-5-yl)-2-pyridinyl)phenyl)-1H-imidazol-2-yl)-1-pyrrolidinyl)ethyl)carbamate], the EC50 lay in the range of 0.001 to 0.999 nM.
With `COC(=O)N[C@@H](C(=O)N1CCC[C@H]1c1ncc(-c2ccc(-c3ccc(-c4cnc([C@@H]5CCCN5C(=O)N5CCOCC5)[nH]4)cn3)cc2)[nH]1)c1ccccc1` [Example 144, methyl((1R)-2-((2S)-2-(5-(4-(5-(2-((2S)-1-(4-morpholinylcarbonyl)-2-pyrrolidinyl)-1H-imidazol-5-yl)-2-pyridinyl)phenyl)-1H-imidazol-2-yl)-1-pyrrolidinyl)-2-oxo-1-phenylethyl)carbamate], the concentration giving a half-maximal response (EC50) was in the range of 0.001 to 0.999 nM.
Turning to `COC(=O)N[C@@H](C(=O)N1CCC[C@H]1c1ncc(-c2ccc(-c3ccc(-c4cnc([C@@H]5CCCN5C(=O)[C@H](NC(=O)OC)c5ccccc5)[nH]4)cn3)nc2)[nH]1)c1ccccc1` [Example 145, dimethyl(2,2′-bipyridine-5,5′-diylbis(1H-imidazole-5,2-diyl(2S)-2,1-pyrrolidinediyl((1R)-2-oxo-1-phenyl-2,1-ethanediyl)))biscarbamate], the half-maximal effective concentration (EC50) lay in the range of 0.001 to 0.999 nM.
Turning to `CN(C)[C@@H](C(=O)N1CCC[C@H]1c1ncc(-c2ccc(-c3ccc(-c4cnc([C@@H]5CCCN5C(=O)[C@@H](c5ccccc5)N(C)C)[nH]4)nc3)cc2)[nH]1)c1ccccc1` [Example 146, (1R)-2-((2S)-2-(5-(5-(4-(2-((2S)-1-((2R)-2-(dimethylamino)-2-phenylacetyl)-2-pyrrolidinyl)-1H-imidazol-5-yl)phenyl)-2-pyridinyl)-1H-imidazol-2-yl)-1-pyrrolidinyl)-N,N-dimethyl-2-oxo-1-phenylethanamine], the EC50 is 0.001 to 0.999 nM.
The result for `COC(=O)N[C@@H](C(=O)N1CCC[C@H]1c1ncc(-c2ccc(-c3ccc(-c4cnc([C@@H]5CCCN5C(=O)[C@H](NC(=O)OC)c5ccccc5)[nH]4)nc3)cc2)[nH]1)c1ccccc1` [Example 147, methyl((1R)-2-((2S)-2-(5-(5-(4-(2-((2S)-1-((2R)-2-((methoxycarbonyl)amino)-2-phenylacetyl)-2-pyrrolidinyl)-1H-imidazol-5-yl)phenyl)-2-pyridinyl)-1H-imidazol-2-yl)-1-pyrrolidinyl)-2-oxo-1-phenylethyl)carbamate] reads 0.001 to 0.999 nM.
